From article PMC4242536, “Cell Surface Protein Disulfide Isomerase Regulates Natriuretic Peptide Generation of Cyclic Guanosine Monophosphate” (PLoS ONE, 2014)

How the values were obtained:
PDI full-length protein = target: T1, PDI full-length protein (Homo sapiens, UniProt P07237); test: Surface Plasmon Resonance binding to immobilized PDI (Biacore T200); settings: SPR, 25°C, pH 7.4
T1 construct: PDI full-length protein (Sigma, St. Louis, MO) was immobilized onto a CM5 sensorchip; purchased Sigma (St. Louis, MO)
T1 sequence (P07237 18-508, species assumed): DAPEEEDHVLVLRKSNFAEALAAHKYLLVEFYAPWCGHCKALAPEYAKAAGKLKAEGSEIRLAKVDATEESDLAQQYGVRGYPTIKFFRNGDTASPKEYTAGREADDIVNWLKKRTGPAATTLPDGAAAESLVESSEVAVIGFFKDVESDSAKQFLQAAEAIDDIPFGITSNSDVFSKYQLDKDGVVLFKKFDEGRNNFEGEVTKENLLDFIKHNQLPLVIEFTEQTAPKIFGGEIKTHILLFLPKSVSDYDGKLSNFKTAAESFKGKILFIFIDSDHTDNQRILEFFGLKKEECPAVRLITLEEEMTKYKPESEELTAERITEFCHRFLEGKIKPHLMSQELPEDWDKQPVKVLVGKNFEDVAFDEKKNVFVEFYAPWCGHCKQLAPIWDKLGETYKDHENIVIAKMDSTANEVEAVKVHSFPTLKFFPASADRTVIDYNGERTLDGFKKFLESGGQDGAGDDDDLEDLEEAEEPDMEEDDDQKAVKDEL
Experimental: SPR measurements were performed at 25°C on a Biacore T200 biosensor (GE Healthcare). PDI full-length protein (Sigma, St. Louis, MO) was immobilized onto a CM5 sensorchip using an amine coupling immobilization kit (GE Healthcare) as instructed by the supplier. After the chip was washed with Biacore running buffer (150 mM NaCl, and 0.005% (w/v) Polysorbate 20, 10 mM HEPES, pH 7.4), peptides ANP, BNP or CNP were injected at 40 ul/min for 30 s and allowed to dissociate for 150 s. Residual bound peptide was desorbed with 350 mM NaCl. Binding kinetics were derived from sensorgrams using Bioevaluation software version 4.1.1 (GE Healthcare).

[1] = tested on: pig kidney epithelial cells (LLC-PK1); test: Total cellular cGMP (BIOTRAK enzyme immunoassay) in LLC-PK1 cells stimulated by ANP; assay type: cell-based
Experimental: (§1) Human umbilical vein endothelial cells (HUVECs), human aortic smooth muscle cells (HASMCs), and pig kidney epithelial cells (LLC-PK1) were purchased from American Type Culture Collection (ATCC) (Manassas, VA). HUVECs were cultured in endothelial growth medium (EGM-2) with supplements (Lonza, Hopkinton, MA). HASMCs were cultured in smooth muscle cells growth medium (SmBM) with supplements (Lonza). Primary human glomerular mesangial cells (HMCs) (Cell Systems Inc., Kirkland, WA) were grown in mesangial growth media with supplements (Cell Systems Inc.). LLC-PK1 cells were grown in Dullbecco's Modification of Eagle's Medium (DMEM) containing 10% FBS. All cell cultures were grown at 37°C in humidified 5% CO2 air. Primary cells from passage 3 to 7 were used in this study.
(§2) Total cellular cGMP was measured using the BIOTRAK cGMP enzyme immunoassay system Kit (GE Healthcare) as previously described. Briefly, cells were plated in 96-well plates and incubated overnight to reach 80% confluence. The cells were stimulated with different concentrations of synthetic natriuretic peptides dissolved in basic culture medium containing 0.5 mM IBMX for 30 minutes, then lysed. All samples were completed in triplicate for each experiment. The amount of cGMP was calculated from a standard curve that was generated in parallel. […]

[2] = tested on: human aortic smooth muscle cells (HASMCs); test: Total cellular cGMP (BIOTRAK enzyme immunoassay) in HASMCs stimulated by natriuretic peptides; assay type: cell-based; settings: 30 minutes with NP, 0.5 mM IBMX, p ≤0.05 vs samples without bacitracin, 3 independent experiments in triplicate
Experimental: (§3) Human umbilical vein endothelial cells (HUVECs), human aortic smooth muscle cells (HASMCs), and pig kidney epithelial cells (LLC-PK1) were purchased from American Type Culture Collection (ATCC) (Manassas, VA). HUVECs were cultured in endothelial growth medium (EGM-2) with supplements (Lonza, Hopkinton, MA). HASMCs were cultured in smooth muscle cells growth medium (SmBM) with supplements (Lonza). Primary human glomerular mesangial cells (HMCs) (Cell Systems Inc., Kirkland, WA) were grown in mesangial growth media with supplements (Cell Systems Inc.). LLC-PK1 cells were grown in Dullbecco's Modification of Eagle's Medium (DMEM) containing 10% FBS. All cell cultures were grown at 37°C in humidified 5% CO2 air. Primary cells from passage 3 to 7 were used in this study. Total cellular cGMP was measured using the BIOTRAK cGMP enzyme immunoassay system Kit (GE Healthcare) as previously described. Briefly, cells were plated in 96-well plates and incubated overnight to reach 80% confluence. The cells were stimulated with different concentrations of synthetic natriuretic peptides dissolved in basic culture medium containing 0.5 mM IBMX for 30 minutes, then lysed. All samples were completed in triplicate for each experiment. The amount of cGMP was calculated from a standard curve that was generated in parallel. […]

PDI = test: Diphtheria toxin sensitivity assay (cell survival) in HMCs; assay type: cell-based, human; settings: DT 30 minutes then 72 hours, p<0.05, 3 independent experiments
[3] = tested on: human umbilical vein endothelial cells (HUVECs); test: Total cellular cGMP (BIOTRAK enzyme immunoassay) in HUVECs stimulated by natriuretic peptides; assay type: cell-based; settings: 30 minutes with NP, 0.5 mM IBMX, p ≤0.05 vs samples without bacitracin, 3 independent experiments in triplicate
Experimental: as §3

[4] = tested on: human mesangial cells (HMCs); test: Total cellular cGMP (BIOTRAK enzyme immunoassay) in HMCs stimulated by natriuretic peptides; assay type: cell-based
Experimental: as §1, §2

HMCs, HASMCs, and HUVECs = test: Total cellular cGMP in HMCs, HASMCs and HUVECs (summary over cells); assay type: cell-based, human
Experimental: as §3

GC-B = test: Western blot of GC-B expression in HMCs; assay type: cell-based, human; settings: HMCs with and without bacitracin
Experimental: as §1, with “study. Conventional western blotting was used to identify PDI in cellular proteins and was described previously.” for “study.”

In the case of CC[C@H](C)[C@@H]1NC(=O)[C@H](CCCNC(=N)N)NC(=O)[C@H](CC(=O)O)NC(=O)[C@H](CCSC)NC(=O)[C@H](CCCCN)NC(=O)[C@H](CCCNC(=N)N)NC(=O)CNC(=O)[C@H](Cc2ccccc2)NC(=O)[C@@H](NC(=O)CNC(=O)[C@H](CO)NC(=O)CNC(=O)[C@H](CCC(N)=O)NC(=O)[C@@H](NC(=O)[C@H](CCSC)NC(=O)[C@H](CCCCN)NC(=O)[C@@H]2CCCN2C(=O)[C@@H](N)CO)C(C)C)CSSC[C@@H](C(=O)N[C@@H](CCCCN)C(=O)N[C@H](C(=O)N[C@@H](CC(C)C)C(=O)N[C@@H](CCCNC(=N)N)C(=O)N[C@@H](CCCNC(=N)N)C(=O)N[C@@H](Cc2c[nH]cn2)C(=O)O)C(C)C)NC(=O)CNC(=O)[C@H](CC(C)C)NC(=O)CNC(=O)[C@H](CO)NC(=O)[C@H](CO)NC(=O)[C@H](CO)NC(=O)[C@H](CO)NC1=O [BNP, B-type natriuretic peptide], the “binding to immobilized PDI (in words)” value (PDI full-length protein; 0–1600 nM ANP and BNP, 200 nM comparison of NPs) is reported as “highest binding affinity with PDI and displayed dose-dependent increases in binding”.

For C-type natriuretic peptide [CNP], the “affinity for PDI (in words)” value (PDI full-length protein; compared with ANP and BNP, Fig. 5D) was “much lower affinity”.

bacitracin was tested, and the “inhibition of ANP-mediated increases in cGMP” value ([1]; LLC-PK1 cells (no detectable PDI), p>0.05) was “did not inhibit”, the “attenuation of ANP, BNP, and CNP-mediated increases in cGMP” value [2] was “significantly attenuated” and the “cell survival on diphtheria toxin (inhibition of PDI-dependent DT toxicity)” value (PDI) was “inhibited PDI function”. For the same molecule, the “cell survival on diphtheria toxin (inhibition of PDI-dependent DT toxicity)” value (PDI; listed as Bacitracin) was “increased cell survival significantly”, the “attenuation of ANP, BNP, and CNP-mediated increases in cGMP” value [3] was “significantly attenuated” and the “inhibitory effect on cGMP levels in the presence of protease inhibitors” value ([4]; HMCs stimulated by ANP and CNP, with or without protease inhibitor cocktail, 3 independent experiments) was “did not lose its inhibitory effects on cGMP levels”. For the same molecule, the “attenuation of ANP, BNP, and CNP-mediated increases in cGMP” value ([4]; HMCs, 30 minutes with NP, 0.5 mM IBMX, p ≤0.05 vs samples without bacitracin, 3 independent experiments in triplicate) was “significantly attenuated”, the “dose dependence of the inhibitory effect on NP-mediated cGMP” value (HMCs, HASMCs, and HUVECs; data not shown, HMCs, HASMCs and HUVECs) was “dose dependent” and the “effect on NP cGMP generation compared to RL90 or siRNA knockdown” value (HMCs, HASMCs, and HUVECs; in words) was “greater effect”. The “effect on GC-B expression” value (GC-B) was “no difference in GC-B expression”.

In the case of protein disulfide isomerase [PDI], the “increase of ANP stimulated cGMP production” value ([1]; LLC-PK1 cells, purified PDI added, compared with cells without PDI, second of two values (condition not given, Fig. 3C)) is reported as 39%.
